This is an account of results in patent US5476856A, “Treatment of PAF and histamine-mediated diseases with 8-chloro-11-[1-[(5-methyl-3-pyridyl)methyl]-4-piperidyliden]-6,11-dihydr o-5H-benzo[5,6]cyclohepta[1,2-b]pyridine” (J. Uriach & Cia. S.A., priority 1992, dated 1995).

Where a name gives a salt, the structure may show the parent alone.

One assay deals with mortality induced by PAF. The assay is described as follows: Mortality induced by PAF in mice (p.o.) (Test 3). Conditions: for ED50: Mus musculus, 2 h, po, 1 h before 100 mcg/kg PAF-C18 and 1 mg/kg propanolol, 50% inhibition of mortality, read-out: PAF antagonism in vivo, Test 3 Mort. ID50. It is filed as in vivo, Swiss mice. The method, then: This test was performed according to the procedure described by Young et al. (Prostaglandins, 1985, 30, 545-551). Groups of 10 Swiss mice weighing from 22 to 26 g were used. 100 mcg/kg of PAF-C18 and 1 mg/kg of propanolol were administered through a lateral tail vein 1 h after the oral administration of the compounds to be tested (0.2 mL/10 g). Animals were examined 2 h after the injection of PAF. The percentage of the inhibition of the mortality induced by PAF was determined for all test compounds in comparison with the control group. The results are expressed as ID50 values, that is to say, the amount of compound by weight of animal (dose) needed to inhibit the mortality induced by PAF in a 50%.

The subject of assay [1] is hypotension induced by PAF. The assay is described as follows: Inhibition of the hypotensive effect induced by PAF in normotense rats (Test 2). Set-up: species or system Sprage Dawley rats. Conditions: Rattus norvegicus; iv, 3 min before PAF 0.5 mcg/Kg i.v.; 50% inhibition of hypotension; read-out: PAF antagonism in vivo, Test 2 Art. p. ID50. The procedure: Male Sprage Dawley rats (b.w. 180-220 g) anesthetized with sodium pentobarbital (50 mg/Kg, i.p. 1 mL/100 g) are used. In order to measure the average arterial pressure, a polyethylene catheter is introduced into the carotid artery. The arterial pressure is recorded with the help of a transducer connected with a R611 Beckman polygraph. The test compounds are administered through the femoral vein 3 min. before the injection of PAF (0.5 mcg/Kg, i.v.).

In assay [2] the test system is platelet aggregation induced by PAF. As to the kind of experiment: Inhibition of platelet aggregation induced by PAF (Test 1). It is filed as cell-based, New Zealand albino rabbits. The following applies: Oryctolagus cuniculus; rabbit platelet rich plasma; PAF (C18) 16 nM final; read-out: PAF antagonism in vitro, Test 1 Plat. aggreg. IC50. The procedure: The platelet rich plasma (PRP) is prepared by blood centrifugation at 250×g for 10 min. at 4° C. and it is diluted with platelet poor plasma (PPP) obtained by additional centrifugation at 3000×g for 10 min. The amount of platelets is adjusted to […].

For assay [3], the system named is histamine-induced contraction of guinea-pig ileum (AntiH1). As to the kind of experiment: Antihistamine activity in guinea-pig ileum (Test 4, AntiH1 act.). Type of assay: cell-based, Dunkin-Hartley guinea pigs. Conditions: for IC50: Cavia porcellus, histamine 5×10^-7 M, 5 min preincubation, read-out: Antihistaminic activity in vitro, Test 4 AntiH1 act. ileum IC50; for IC50 / antihistamine activity compared with compounds 11 and 12-14, in words / antihistamine potency in words: guinea-pig ileum. The procedure: This test was performed according to the method of Magnus. Male Dunkin-Hartley guinea pigs (b.w. 300-350 g), fasted overnight, were used. Animals were stunned, the abdomen was opened and 4 cm long ileum sections were cut. The sections were placed in a Petri dish containing Tyrode's solution at 37° C. and continuously bubbled with carbogen. The ileum fragments were washed with Tyrode's solution and then were transferred to an organ bath. Ileum contraction was measured using an isometric transducer. The initial load was 1 g. After a stabilization period of 20 min in which the organ is immersed in Tyrode's solution at 37° C. continuously bubbled with carbogen, non cumulative stimuli with submaximal doses of histamine (5×10^-7 M) were given. The contraction in absence or presence (5 min. preincubation time) of the test compounds was recorded.

Turning to `Clc1ccc2c(c1)CCc1cccnc1C2=C1CCN(Cc2cccnc2Cl)CC1` [Compound 6, 8-chloro-11-(1-[(2-chloro-3-pyridyl)methyl]-4-piperidyliden)-6,11-dihydro-5H -benzo[5,6]cyclohepta[1,2-b]pyridine], the ED50 was over 30 mg/kg in the assay on mortality induced by PAF and over 5 mg/kg in assay [1]. The half-inhibitory concentration (IC50) (in general, the concentration at which inhibition is half-maximal) in assay [2] was over 100000 nM; in assay [3] it was 350 nM.
The corresponding values for `Clc1ccc2c(c1)CCc1cccnc1C2=C1CCN(Cc2cncc(Br)c2)CC1` [Compound 8, 8-chloro-11-(1-[(3-bromo-5-pyridyl)methyl]-4-piperidyliden)-6,11-dihydro-5H -benzo[5,6]cyclohepta[1,2-b]pyridine, trihydrochloride] are under 30 mg/kg, over 5 mg/kg, 720 nM and 280 nM.
The matching figures for `Clc1ccc2c(c1)CCc1cccnc1C2=C1CCN(Cc2cccnc2)CC1` [Compound 1, 8-chloro-11-(1-(3-pyridylmethyl)-4-piperidyliden)-6,11-dihydro-5H-benzo[5,6]cyclohepta[1,2-b]pyridine]: 30 mg/kg, over 5 mg/kg, 4000 nM and 160 nM.
For the molecule `Cc1cncc(CN2CCC(=C3c4ccc(Cl)cc4CCc4cccnc43)CC2)c1` [Compound 4, 8-chloro-11-[1-[(5-methyl-3-pyridyl)methyl]-4-piperidyliden]-6,11-dihydro-5H-benzo[5,6]cyclohepta[1,2-b]pyridine], in the assay on mortality induced by PAF, the ED50 came to 1.9 mg/kg. Also, in the assay on mortality induced by PAF (oral administration), the “activity in the PAF-induced mortality test, in words” value was “strong activity”. Further, in the assay on mortality induced by PAF (oral, superior to all the other tested compounds), the “activity in the PAF-induced mortality test relative to all the other tested compounds” value was at least 10 fold. Besides, in assay [1], the ED50 came out at 0.44 mg/kg. For the same molecule, in assay [2], the IC50 worked out at 3200 nM. In addition, in assay [3], the IC50 was 4.3 nM; the “antihistamine activity compared with compounds 11 and 12-14, in words” value is “stronger activity than the 4-pyridine 11 and the compounds 12-14”; the “antihistamine potency in words” value was “potent antihistamines”. In addition, the “antihistaminic potency relative to the 2-methyl derivative 3” value in assay [3] (more potent than compound 3) is about 100 fold. The “antihistaminic potency relative to compound 11” value in assay [3] (more potent than compound 11) is recorded as 20 fold. Also, the “antihistaminic potency relative to the 6-methyl and 4-methyl derivatives 2 and 5” value in assay [3] (more potent than compounds 2 and 5) stood at 10 fold.
For `Cc1ccncc1CN1CCC(=C2c3ccc(Cl)cc3CCc3cccnc32)CC1` [Compound 5, 8-chloro-11-(1-[(4-methyl-3-pyridyl)methyl]-4-piperidyliden)-6,11-dihydro-5H -benzo[5.6]cyclohepta[1,2]pyridine], in the assay with mortality induced by PAF, the ED50 was in the range of 10 to 30 mg/kg. In assay [1], the ED50 is over 5 mg/kg. Also, in assay [2], the IC50 is 15000 nM. Also, in assay [3], the IC50 stood at 35 nM; the “antihistamine activity compared with compounds 11 and 12-14, in words” value is “stronger activity than the 4-pyridine 11 and the compounds 12-14”; the “antihistamine potency in words” value is listed as “potent antihistamines”.
Consider `Clc1ccc2c(c1)CCc1cccnc1C2=C1CCN(Cc2ccc(Cl)nc2)CC1` [Compound 7, 8-chloro-11-(1-[(6-chloro-3-pyridyl)methyl]-4-piperidyliden)-6,11-dihydro-5H -benzo[5,6]cyclohepta[1,2-b]pyridine], for which the results for the ED50 (in the assay with mortality induced by PAF; in assay [1]) were 20 to 30 mg/kg and over 5 mg/kg, respectively. Besides, the IC50 in assay [2] is over 100000 nM.
On to `CCOC(=O)N1CCC(=C2c3ccc(Cl)cc3CCc3cccnc32)CC1` [Compound 14, reference compound], for which the values for the ED50 (in the assay on mortality induced by PAF; in assay [1]) were over 30 mg/kg and over 5 mg/kg, respectively.
With `O=C(c1cc[n+]([O-])cc1)N1CCC(=C2c3ccc(Cl)cc3CCc3cccnc32)CC1` [Compound 13, reference compound], the ED50 with mortality induced by PAF is over 30 mg/kg; in assay [1] it was 1.9 mg/kg. Besides, the IC50 is 220 nM in assay [2] and 210 nM in assay [3].
The matching figures for `Clc1ccc2c(c1)CCc1cccnc1C2=C1CCN(Cc2ccncc2)CC1` [Compound 11, reference compound]: 30 mg/kg, over 5 mg/kg, 1800 nM and 94 nM.
The corresponding values for `Cc1ncccc1CN1CCC(=C2c3ccc(Cl)cc3CCc3cccnc32)CC1` [Compound 3, 8-chloro-11-(1-[(2-methyl-3-pyridyl)methyl]-4-piperidyliden)-6,11-dihydro-5H-benzo [5,6]cyclohepta[1,2-b]pyridine] are over 30 mg/kg, over 5 mg/kg, 13000 nM and 270 nM.
The corresponding values for `CC(=O)N1CCC(=C2c3ccc(Cl)cc3CCc3cccnc32)CC1` [Compound 12, reference compound] are 31 mg/kg, 2 mg/kg, 840 nM and 100 nM.
Consider `COc1ccc(CN2CCC(=C3c4ccc(Cl)cc4CCc4cccnc43)CC2)cn1` [Compound 9, 8-chloro-11-(1-[(6-methoxy-3-pyridyl)methyl]-4-piperidyliden)-6,11-dihydro-5H -benzo[5,6]cyclohepta[1,2-b]pyridine], for which the IC50 in assay [2] was found to be 37000 nM; in assay [3] it was 380 nM.
Take `Cc1ccc(CN2CCC(=C3c4ccc(Cl)cc4CCc4cccnc43)CC2)cn1` [Compound 2, 8-chloro-11-(1-[(6-methyl-3-pyridyl)metyl]-4-piperidyliden)-6,11-dihydro-5H-benzo [5,6]cyclohepta[1,2-]pyridine]: the ED50 in the assay on mortality induced by PAF was 30 mg/kg. The ED50 in assay [1] is over 5 mg/kg. Moreover, the IC50 in assay [2] is 9000 nM. Besides, in assay [3], the IC50 is 37 nM; the “antihistamine activity compared with compounds 11 and 12-14, in words” value was “stronger activity than the 4-pyridine 11 and the compounds 12-14”; the “antihistamine potency in words” value is on record as “potent antihistamines”.
